Test results as given in patent US20240270698A2, “NOVEL PYRIMIDINE DERIVATIVE AND USE THEREOF” (KOREA RESEARCH INSTITUTE OF CHEMICAL TECHNOLOGY, priority 2019, published 2024).

How the values were obtained:
[1] = molecular target: T1, human recombinant MLK3 protein (Homo sapiens, UniProt Q16584); assay: MLK3 kinase activity assay (Eurofins, gamma-33P-ATP, filtermat scintillation counting); type: biochemical; details: human recombinant MLK3, 120 minutes at room temperature
T1 construct: purchased Eurofins

[2] = molecular target: T2, human recombinant LRRK2 protein (Homo sapiens, UniProt Q5S007); assay: LRRK2 kinase activity assay (Eurofins, gamma-33P-ATP, filtermat scintillation counting); type: biochemical; details: human recombinant LRRK2, 40 minutes at room temperature
T2 construct: purchased Eurofins

[3] = test system: HepG2 cancer cells; assay: Anticancer activity, cell viability by CCK-8, HepG2; type: cell-based; details: HepG2, 10 μM, 72 hours
Description: Compounds 1 to 119 synthesized in Example 1 according to the present disclosure were assayed for inhibitory activity against MLK3/LRRK2 enzymes and anticancer activity against HepG2/H[…] cancer cells, and the results are summarized in Table 1, below. Assay for anticancer activity was conducted as follows. HepG2 and H[…] cancer cells were purchased from the Korean Cell Line Bank and cultured according to the instruction provided thereby. One hundred μL of a culture of the cells were seeded at a density of 4,000 cells/well into 96-well plates. After 24 hours, the cells were treated with the compounds for 72 hours. Then, cell viability was assayed using CCK-8 and expressed as % of the control.

[4] = test system: HS746T cancer cells; assay: Anticancer activity, cell viability by CCK-8, HS746T; type: cell-based; details: 72 hours
How it was run: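 HS746T or HepG2 cells seeded at 4,000 cells/well, left 24 h, then exposed to compounds for 72 h. Viability measured by CCK-8 and expressed as % of untreated control.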

T2 sequence (Q5S007 whole entry): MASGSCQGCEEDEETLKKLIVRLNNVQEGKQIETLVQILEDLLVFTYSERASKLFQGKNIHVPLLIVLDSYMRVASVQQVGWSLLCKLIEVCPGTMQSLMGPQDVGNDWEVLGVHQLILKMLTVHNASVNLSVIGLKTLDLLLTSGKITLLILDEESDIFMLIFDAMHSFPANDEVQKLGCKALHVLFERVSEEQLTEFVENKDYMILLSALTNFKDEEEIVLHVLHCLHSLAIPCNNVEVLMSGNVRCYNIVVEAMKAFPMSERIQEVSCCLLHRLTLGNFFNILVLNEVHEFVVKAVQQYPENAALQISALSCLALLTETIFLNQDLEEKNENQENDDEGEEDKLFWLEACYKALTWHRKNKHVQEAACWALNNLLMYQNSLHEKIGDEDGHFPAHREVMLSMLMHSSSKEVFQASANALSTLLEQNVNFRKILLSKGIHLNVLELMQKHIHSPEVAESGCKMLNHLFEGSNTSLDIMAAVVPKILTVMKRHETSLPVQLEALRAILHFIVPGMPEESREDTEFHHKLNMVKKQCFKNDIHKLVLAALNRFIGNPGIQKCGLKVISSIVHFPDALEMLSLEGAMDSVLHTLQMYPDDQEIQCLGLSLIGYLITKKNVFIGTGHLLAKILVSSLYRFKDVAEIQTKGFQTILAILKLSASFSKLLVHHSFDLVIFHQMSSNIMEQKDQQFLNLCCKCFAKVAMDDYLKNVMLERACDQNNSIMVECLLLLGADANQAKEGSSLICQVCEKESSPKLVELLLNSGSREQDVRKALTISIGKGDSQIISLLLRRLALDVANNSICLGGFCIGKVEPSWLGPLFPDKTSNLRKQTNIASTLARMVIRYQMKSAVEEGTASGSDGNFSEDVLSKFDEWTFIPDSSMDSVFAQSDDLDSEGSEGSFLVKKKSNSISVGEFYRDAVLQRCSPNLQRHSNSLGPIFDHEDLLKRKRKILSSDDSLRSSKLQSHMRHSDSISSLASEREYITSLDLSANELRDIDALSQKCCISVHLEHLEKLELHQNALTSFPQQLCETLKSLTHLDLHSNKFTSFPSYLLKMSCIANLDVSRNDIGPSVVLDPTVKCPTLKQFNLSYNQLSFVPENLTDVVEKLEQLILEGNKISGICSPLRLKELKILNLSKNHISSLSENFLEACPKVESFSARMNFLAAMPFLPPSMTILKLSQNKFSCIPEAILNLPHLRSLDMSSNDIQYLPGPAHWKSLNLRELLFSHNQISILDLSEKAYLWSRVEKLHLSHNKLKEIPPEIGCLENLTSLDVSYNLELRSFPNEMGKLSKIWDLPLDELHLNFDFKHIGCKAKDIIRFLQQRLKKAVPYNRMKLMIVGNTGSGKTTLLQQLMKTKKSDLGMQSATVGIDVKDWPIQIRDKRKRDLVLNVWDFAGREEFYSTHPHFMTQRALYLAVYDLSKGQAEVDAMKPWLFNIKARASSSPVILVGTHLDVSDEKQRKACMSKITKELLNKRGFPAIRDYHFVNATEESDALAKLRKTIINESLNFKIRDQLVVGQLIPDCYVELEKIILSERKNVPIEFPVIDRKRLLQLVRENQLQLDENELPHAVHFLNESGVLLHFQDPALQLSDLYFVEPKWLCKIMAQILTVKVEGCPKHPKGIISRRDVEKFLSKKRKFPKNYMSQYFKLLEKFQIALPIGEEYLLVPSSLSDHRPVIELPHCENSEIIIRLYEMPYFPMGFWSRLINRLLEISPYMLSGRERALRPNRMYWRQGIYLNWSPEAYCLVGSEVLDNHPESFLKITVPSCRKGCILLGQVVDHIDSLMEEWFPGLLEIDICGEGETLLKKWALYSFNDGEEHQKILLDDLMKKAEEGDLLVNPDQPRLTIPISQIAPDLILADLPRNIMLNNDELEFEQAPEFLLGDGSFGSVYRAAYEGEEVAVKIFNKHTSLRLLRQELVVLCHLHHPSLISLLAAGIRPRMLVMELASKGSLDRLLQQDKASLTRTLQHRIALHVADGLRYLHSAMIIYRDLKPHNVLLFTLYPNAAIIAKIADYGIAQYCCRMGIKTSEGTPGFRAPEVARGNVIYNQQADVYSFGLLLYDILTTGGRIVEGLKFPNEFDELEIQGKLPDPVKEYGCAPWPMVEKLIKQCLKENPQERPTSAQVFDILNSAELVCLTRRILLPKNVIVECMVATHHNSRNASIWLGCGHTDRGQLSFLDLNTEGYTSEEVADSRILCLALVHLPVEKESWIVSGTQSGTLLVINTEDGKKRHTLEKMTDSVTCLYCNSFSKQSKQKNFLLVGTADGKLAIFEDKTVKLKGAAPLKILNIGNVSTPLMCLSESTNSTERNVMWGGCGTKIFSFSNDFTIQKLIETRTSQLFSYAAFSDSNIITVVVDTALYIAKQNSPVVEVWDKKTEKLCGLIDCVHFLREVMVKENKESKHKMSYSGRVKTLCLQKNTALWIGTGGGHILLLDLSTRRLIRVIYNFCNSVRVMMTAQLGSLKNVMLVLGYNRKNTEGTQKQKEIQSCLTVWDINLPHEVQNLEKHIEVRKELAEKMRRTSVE
T1 sequence (Q16584 whole entry): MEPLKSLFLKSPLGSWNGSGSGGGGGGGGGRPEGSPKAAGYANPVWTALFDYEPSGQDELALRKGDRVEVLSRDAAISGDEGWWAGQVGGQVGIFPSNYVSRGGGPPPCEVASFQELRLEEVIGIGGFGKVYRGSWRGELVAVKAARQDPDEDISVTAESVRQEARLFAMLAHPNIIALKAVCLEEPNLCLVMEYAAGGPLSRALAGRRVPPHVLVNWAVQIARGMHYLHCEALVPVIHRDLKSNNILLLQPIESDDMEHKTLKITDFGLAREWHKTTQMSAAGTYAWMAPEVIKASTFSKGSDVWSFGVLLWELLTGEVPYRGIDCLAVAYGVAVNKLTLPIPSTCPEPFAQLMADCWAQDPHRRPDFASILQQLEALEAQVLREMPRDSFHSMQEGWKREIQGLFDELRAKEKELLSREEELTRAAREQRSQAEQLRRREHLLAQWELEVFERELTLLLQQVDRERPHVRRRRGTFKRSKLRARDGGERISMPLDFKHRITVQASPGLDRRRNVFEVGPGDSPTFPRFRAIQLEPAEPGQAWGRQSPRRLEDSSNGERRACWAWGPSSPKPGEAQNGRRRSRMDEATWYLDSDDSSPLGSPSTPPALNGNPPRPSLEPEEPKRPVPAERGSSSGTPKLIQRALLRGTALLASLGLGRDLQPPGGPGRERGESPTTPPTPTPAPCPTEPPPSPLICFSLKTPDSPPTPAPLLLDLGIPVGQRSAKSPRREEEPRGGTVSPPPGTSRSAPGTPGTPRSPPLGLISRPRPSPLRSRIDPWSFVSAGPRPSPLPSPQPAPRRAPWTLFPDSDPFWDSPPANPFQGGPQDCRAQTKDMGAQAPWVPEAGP

Row | Compound | IC50 [1] | IC50 [2] | Cell viability (% of Con. 10 μM) HepG2 [3] | Cell viability (% of Con. 10 μM) HS746T [4]
1 | CP(C)(=O)c1ccccc1Nc1nc(Nc2ccc3c(c2)CN(C(=O)C(F)(F)F)C3)ncc1Cl [compound 72, 1-(5-((5-Chloro-4-((2-(dimethylphosphoryl)phenyl)amino)pyrimidin-2-yl)amino)isoindolin-2-yl)-2,2,2-trifluoroethan-1-one] | 10 to 100 nM | 1 to 10 nM | 35 % of Con. | 9 % of Con.
2 | CP(C)(=O)c1ccccc1Nc1nc(Nc2ccc3c(c2)CNC3)ncc1Cl [compound 73, (2-((5-Chloro-2-(isoindolin-5-ylamino)pyrimidin-4-yl)amino)phenyl)dimethylphosphine oxide] | 1 to 10 nM | 1 to 10 nM | 19 % of Con. | 0.5 % of Con.
3 | CP(C)(=O)c1ccccc1Nc1nc(Nc2ccc3[nH]c(C(F)(F)F)nc3c2)ncc1Cl [compound 75, (2-((5-Chloro-2-((2-(trifluoromethyl)-1H-benzo[d]imidazol-5-yl)amino)pyrimidin-4-yl)amino)phenyl)dimethylphosphine oxide] | 10 to 100 nM | 1 to 10 nM | 28 % of Con. | 21 % of Con.
4 | CC(C)n1cc(-c2n[nH]c3ccc(Nc4ncc(Cl)c(Nc5ccccc5P(C)(C)=O)n4)cc23)cn1 [compound 93, (2-((5-Chloro-2-((3-(1-isopropyl-1H-pyrazol-4-yl)-1H-indazol-5-yl)amino)pyrimidin-4-yl)amino)phenyl)dimethylphosphine oxide] | 1 to 10 nM | 1 to 10 nM | 42 % of Con. | 18 % of Con.
5 | Cn1cc(-c2n[nH]c3ccc(Nc4ncc(Cl)c(Nc5ccccc5P(C)(C)=O)n4)cc23)cn1 [compound 94, (2-((5-Chloro-2-((3-(1-methyl-1H-pyrazol-4-yl)-1H-indazol-5-yl)amino)pyrimidin-4-yl)amino)phenyl)dimethylphosphine oxide] | 1 to 10 nM | 1 to 10 nM | 30 % of Con. | 15 % of Con.
6 | CCCn1cc(-c2n[nH]c3ccc(Nc4ncc(Cl)c(Nc5ccccc5P(C)(C)=O)n4)cc23)cn1 [compound 95, (2-((5-Chloro-2-((3-(1-propyl-1H-pyrazol-4-yl)-1H-indazol-5-yl)amino)pyrimidin-4-yl)amino)phenyl)dimethylphosphine oxide] | 1 to 10 nM | 1 to 10 nM | 39 % of Con. | 19 % of Con.
7 | CP(C)(=O)c1ccccc1Nc1nc(Nc2ccc3[nH]nc(-c4ccccc4)c3c2)ncc1Cl [compound 96, (2-((5-chloro-2-((3-phenyl-1H-indazol-5-yl)amino)pyrimidin-4-yl)amino)phenyl)dimethylphosphine oxide] | 1 to 10 nM | 1 to 10 nM | 15 % of Con. | 10 % of Con.
8 | CP(C)(=O)c1ccccc1Nc1nc(Nc2ccc3[nH]nc(-c4cccc([N+](=O)[O-])c4)c3c2)ncc1Cl [compound 97, (2-((5-Chloro-2-((3-(3-nitrophenyl)-1H-indazol-5-yl)amino)pyrimidin-4-yl)amino)phenyl)dimethylphosphine oxide] | 1 to 10 nM | 1 to 10 nM | 21 % of Con. | 11 % of Con.
9 | CP(C)(=O)c1ccccc1Nc1nc(Nc2cnc3[nH]nc(-c4cccnc4F)c3c2)ncc1Cl [compound 98, (2-((5-Chloro-2-((3-(2-fluoropyridin-3-yl)-1H-pyrazolo[3,4-b]pyridin-5-yl)amino)pyrimidin-4-yl)amino)phenyl)dimethylphosphine oxide] | 1 to 10 nM | 1 to 10 nM | 27 % of Con. | 10 % of Con.
